Laboratory results taken from patent US12286398B2, “Anti-bacterial stilbene derivatives and methods of use” (YALE UNIVERSITY, priority 2019, dated 2025).
Values after ≈ are worked out from the molar mass of the structure shown. Read-outs that look alike come from different tables or passages of the source.

How the values were obtained:
MRSA [1] = assay: Lipid II supplementation rescue of MRSA growth; assay type: cell-based, Staphylococcus aureus; conditions: lethal concentrations of antibiotic, with lipid II in the media
Source text: (§1) FIGS. 21A-21D show (FIG. 21A) SYTOX Green fluorescence assay for antibiotic-induced bacterial membrane permeability. Vancomycin was used as a negative control, and daptomycin was used as a positive control. Error bars represent the standard error of the mean across 3 biological replicates. […] Vancomycin was used as a positive control. The UDP-MurNAc-pentapeptide was identified by mass spectrometry, with an [M+H]^+ of 1150.3590. Error bars represent the standard deviation of three biological replicates. […] Lipid II cannot rescue bacteria grown in the presence of ciprofloxacin (an inhibitor of DNA replication). Data from three biological replicates are shown. […] Vancomycin was used as a positive control. Lipid II was boiled to remove the lipid tail, and de-lipidated lipid II was quantified by mass spectrometry, with an [M+H]^+ of 1331.5362. Error bars represent the standard deviation of three biological replicates.
Lipid II is a crucial peptidoglycan building block downstream of UDP-MurNAc-pentapeptide and is the target of several antibiotics, including vancomycin. Bacteria were grown in the presence of lethal concentrations of antibiotics with and without supplementation of lipid II into the media. […] These lipids are the targets of numerous antibiotics. Compounds that bind to lipid II are known to result in its accumulation in cells, while compounds that bind to C55-P or C55-PP result in a reduction in lipid II levels. […] The lipid tail of lipid II can be removed by boiling in acidic conditions, allowing quantification by LC-MS. Following this protocol, an accumulation of a mass matching de-lipidated lipid II when bacteria were treated with either compounds of Formula I or vancomycin (FIG. 21D) was observed. The identity of this molecule was confirmed by tandem mass spectrometry and compared to published fragmentation data. Without being bound by theory, it is believed that compounds of Formula I target the bacterial cell wall by binding to lipid II and preventing its polymerization and cross-linking into peptidoglycan.

MRSA [2] = conditions: after 30 days, identical conditions
Source text: Fold change in MIC for one culture grown in the presence of sub-inhibitory levels of ciprofloxacin for 30 days is shown as a positive control.
An attempt to culture MRSA mutants resistant to compounds of Formula I was made by subculturing two independent cultures of bacteria continuously in the presence of non-lethal concentrations of 5.

[3] = test system: methicillin-resistant Staphylococcus aureus (MRSA); assay: Growth inhibition assay, minimum inhibitory concentration against MRSA; assay type: cell-based; conditions: for MIC: Staphylococcus aureus
Protocol: (§2) Growth Inhibition Assays. Compounds were prepared in DMSO to a concentration of 10 mM. DMSO was used as a vehicle negative control, and vancomycin (MRSA) and ampicillin (VRE) were also prepared as positive controls for minimum inhibitory concentration (MIC) tests. Compounds were tested for antimicrobial activity against MRSA and VRE at 100, 50, 25, 12.5, 6.25, 3.13, 1.56, 0.78, and 0.39 μM. MRSA was grown in tryptic soy broth and VRE was grown in brain heart infusion medium. Overnight cultures of bacteria were diluted to OD600=0.1 and 50 μL of cell culture broth was added to each well. Media (50 μL) containing compound at the appropriate concentration was then added to the cell cultures and the plates were sealed and incubated at 37° C. overnight. Plates were then read for OD600 using a PerkinElmer Envision 2100 multimode plate reader (PerkinElmer, Waltham, MA, USA). […] All samples were tested in triplicate.
(§3) Determination of Minimum Inhibitory Concentration. All compounds were freshly dissolved in DMSO at a stock solution of 10 mM. DMSO (solvent vehicle) was used as a negative control and vancomycin and ampicillin were used as positive controls for MRSA and VRE, respectively. Compounds were dispensed into 96-well plates at 100, 50, 25, 12.5, 6.25, 3.13, 1.56, 0.78, and 0.39 μM. Overnight cultures of MRSA grown in tryptic soy broth and VRE grown in brain heart infusion medium were diluted to OD600 of 0.1, and 50 μL of fresh cell culture broth was added to each well. The plates were sealed and incubated at 37° C. overnight. Plates were then monitored for OD600 using a PerkinElmer Envision 2100 multimode plate reader (PerkinElmer, Waltham, MA, USA).

[4] = test system: vancomycin-resistant Enterococcus faecalis (VRE); assay: Growth inhibition assay, minimum inhibitory concentration against VRE; assay type: cell-based
Protocol: as §2, §3

[5] = test system: UDP-MurNAc-pentapeptide in MRSA; assay: Accumulation of cell wall precursor UDP-MurNAc-pentapeptide in MRSA; assay type: cell-based, Staphylococcus aureus; conditions: compared to DMSO
Source text: (§4) FIGS. 21A-21D show (FIG. 21A) SYTOX Green fluorescence assay for antibiotic-induced bacterial membrane permeability. Vancomycin was used as a negative control, and daptomycin was used as a positive control. Error bars represent the standard error of the mean across 3 biological replicates. […] Vancomycin was used as a positive control. […] Error bars represent the standard deviation of three biological replicates. […] Data from three biological replicates are shown. […] Vancomycin was used as a positive control. […] Error bars represent the standard deviation of three biological replicates.
(§5) The effects of compounds of Formula I on the bacterial cell wall were thus investigated. […] The effects of compounds of Formula I on cell wall biosynthesis was investigated by looking for accumulation of the cell wall precursor molecule UDP-MurNAc-pentapeptide (FIG. 21B).

lipid II in MRSA = assay: Accumulation of lipid II in MRSA, LC-MS of de-lipidated lipid II; assay type: cell-based, Staphylococcus aureus; conditions: compared to DMSO
Source text: as §1
Lipid II is a crucial peptidoglycan building block downstream of UDP-MurNAc-pentapeptide and is the target of several antibiotics, including vancomycin. Bacteria were grown in the presence of lethal concentrations of antibiotics with and without supplementation of lipid II into the media. […] These lipids are the targets of numerous antibiotics. […] The lipid tail of lipid II can be removed by boiling in acidic conditions, allowing quantification by LC-MS. […]

MRSA [6] = assay: SYTOX Green fluorescence assay for bacterial membrane permeability; assay type: cell-based, Staphylococcus aureus
Source text: as §4, §5

[7] = Table 6, read-out: Minimal inhibitory concentrations, S. aureus (methicillin resistant)
[8] = Enterococcus faecalis, Table 6, read-out: Minimal inhibitory concentrations, E. faecalis (vancomycin resistant)

Row | Compound | MIC [3, 7] [µM] | MIC [4, 8] [µM] | antibiotic activity against MRSA (in words) [3] | antibiotic activity against VRE (in words) [4] | also measured
1 | O=C(O)c1cn(C2CC2)c2cc(N3CCNCC3)c(F)cc2c1=O [ciprofloxacin] |  |  |  |  | restoration of MRSA growth by lipid II supplementation (MRSA [1]): not able to rescue bacterial growth; increase in MIC (MRSA [2]): approximately 37 fold
2 | CC(C)c1c(O)cc(/C=C/c2ccccc2)cc1O [compound 1, tapinarof, reference compound] | 27 (≈ 6.87 µg/mL) | 51 (≈ 13 µg/mL) |  |  | MIC ([3]; read-out: MIC): 27 µM (≈ 6.87 µg/mL); MIC ([4]; read-out: MIC): 50.5 µM (≈ 12.8 µg/mL)
3 | CC(C)c1c(O)cc(C2OC2c2ccccc2)cc1O (stereo not drawn) [compound 2, stilbene epoxide, reference compound] |  |  | little to no activity | little to no activity | 
4 | CC(C)C1=C(O)C(=O)C(/C=C/c2ccccc2)=C(c2c(/C=C/c3ccccc3)cc(O)c(C(C)C)c2O)C1=O [compound 5, duotap-520] |  |  |  |  | level of UDP-MurNAc-pentapeptide [5]: Accumulation; restoration of MRSA growth by lipid II supplementation (MRSA [1]): restore growth; accumulation of lipid II (de-lipidated lipid II) (lipid II in MRSA): Accumulation
5 | Oc1cc(O)cc(/C=C/c2ccccc2)c1 [compound 6, pinosylvin, reference compound] | > 100 | > 100 |  |  | 
6 | Oc1ccc(C=Cc2cc(O)cc(O)c2)cc1 [compound 7, resveratrol, reference compound] | 25 (≈ 5.71 µg/mL) | 14 (≈ 3.2 µg/mL) |  |  | 
7 | O=C1C=C(O)C(=O)C(/C=C/c2ccccc2)=C1c1c(O)cc(O)cc1/C=C/c1ccccc1 [compound 8, duotap-436] | 4 (≈ 1.75 µg/mL) | 6 (≈ 2.62 µg/mL) | significantly enhanced antibiotic activity compared to 6 | significantly enhanced antibiotic activity compared to 6 | activity against VRE [4]: 6 µg/mL
8 | O=C1C=C(O)C(=O)C(/C=C/c2ccc(O)cc2)=C1c1c(O)cc(O)cc1/C=C/c1ccc(O)cc1 [compound 9, duotap-468] | > 100 | > 100 | no enhancement of activity | no enhancement of activity | 
9 | CCCCCCCCCC(=O)N[C@@H](Cc1c[nH]c2ccccc12)C(=O)N[C@H](CC(N)=O)C(=O)N[C@@H](CC(=O)O)C(=O)N[C@@H]1C(=O)NCC(=O)N[C@@H](CCCN)C(=O)N[C@@H](CC(=O)O)C(=O)N[C@H](C)C(=O)N[C@@H](CC(=O)O)C(=O)NCC(=O)N[C@H](CO)C(=O)N[C@@H]([C@H](C)CC(=O)O)C(=O)N[C@@H](CC(=O)c2ccccc2N)C(=O)O[C@@H]1C [daptomycin] |  |  |  |  | membrane permeability (MRSA [6]): increase in membrane permeability
10 | CN[C@H](CC(C)C)C(=O)N[C@H]1C(=O)N[C@@H](CC(N)=O)C(=O)N[C@H]2C(=O)N[C@H]3C(=O)N[C@H](C(=O)N[C@H](C(=O)O)c4cc(O)cc(O)c4-c4cc3ccc4O)[C@H](O)c3ccc(c(Cl)c3)Oc3cc2cc(c3O[C@@H]2O[C@H](CO)[C@@H](O)[C@H](O)[C@H]2O[C@H]2C[C@](C)(N)[C@H](O)[C@H](C)O2)Oc2ccc(cc2Cl)[C@H]1O [vancomycin, reference compound] |  |  |  |  | level of UDP-MurNAc-pentapeptide [5]: significant increase; restoration of MRSA growth by lipid II supplementation (MRSA [1]): restored MRSA growth to antibiotic-free levels; accumulation of lipid II (de-lipidated lipid II) (lipid II in MRSA): accumulation
11 | lumiquinone A [compound 3, reference compound] |  |  | little to no activity | little to no activity | 
